Measurements taken from patent publication US20090041719A1, “Method for screening therapeutic agent for glomerular disorder” (priority 2006, published 2009).
Where “and” joins values, the source holds several entries; their conditions need not be identical. Identical values can stand only once.

Experiments:
FRP-1/CD98/4F2hc = experiment: FACScan of FRP-1/CD98/4F2hc expression on macrophage fraction of LPS-stimulated human PBMC (monoclonal antibodies 4-5-1, 6-1-3, HBJ-127); assay type: cell-based
4F2hc [1] = experiment: HAT heavy chain 4F2hc on large-monocyte fraction of LPS-stimulated human PBMC, peak value by FACScan (polyclonal antibody); assay type: cell-based
Description: (§1) In the same manner as in 1) to 5) of Experimental Example 1, to human peripheral blood mononuclear cells, the test compound (6-2) (final concentration: 10 nM) or the test compound (7-3) (final concentration: 100 nM) was added at the same time when LPS (final concentration: 80 μg/ml) was added, followed by 6-day culture. Further, in the same manner as above, using rabbit anti-human 4F2hc polyclonal antibodies (see Biol Pharm Bull 30:415-422, 2007) as a primary antibody, the peak value of HAT expressed on the fraction of large-macrophages (larger than monocyte macrophages) in human PBMC was measured by FACScan using a commercially available cell fix/cell membrane infiltration kit (trade name: BD Cytofix/Cytoperm™ Kit, catalog No. 554714, BD Biosciences).
(§2) As a control, the one with no test-compound addition was used, and as a rabbit anti-human rBAT (related to b^0,+-type amino acid transporter) polyclonal antibody, the one obtained by coupling a synthesized peptide composed of an amino-terminal of human rBAT (MAEDKSKRDSIEMSMKGC (SEQ ID NO: 2)) and a carboxyl-terminal of mouse b^0,+AT (BAT1) (CHLQMLEWPEKDPE (SEQ ID NO: 3)) to a carrier KLH (keyhole-limpet hemocyanin), and immunizing a rabbit with it.

rBAT [2] = experiment: HAT heavy chain rBAT on large-monocyte fraction of LPS-stimulated human PBMC, peak value by FACScan; assay type: cell-based
Description: as §1, §2

4F2hc [3] = experiment: 4F2hc on large-cell fraction of interferon γ-stimulated THP-1, peak value by FACScan; assay type: cell-based, human
Description: (§3) The same procedures as in Experimental Example 2 were taken except the following conditions: human leukemia culture cell line THP-1 was used instead of the human peripheral blood mononuclear cells; the final addition concentration of the test compound (6-2) was set to 100 nM; fetal bovine serum was used instead of the human AB serum; and human recombinant interferon γ (PHP050, Serotec) (final concentration: 100 ng/ml) was used instead of LPS. Also, using rabbit anti-human 4F2hc polyclonal antibodies (see Biol Pharm Bull 30: 415-422, 2007) as the primary antibody, the peak value of HAT expressed on the fraction of large-cells in human leukemia culture cell strain THP-1, compared with those not stimulated with LPS, was measured. As a control, the one with no test-compound (DMSO alone) was used, and the rabbit anti-human rBAT polyclonal antibodies were obtained in the same manner as in Experimental Example 2.

rBAT [4] = experiment: rBAT on large-cell fraction of interferon γ-stimulated THP-1, peak value by FACScan; assay type: cell-based, human
Description: as §3

[5] = tested on: puromycin-induced acute nephrosis model; experiment: Puromycin-induced acute nephrosis model: urinary albumin excretion; assay type: in vivo, SD (Sprague-Dawley) rat
Description: It is known that a single intravenous dose of 50 mg/kg of puromycin to a 5-week-old SD (Sprague-Dawley) male rat damages the glomerular epithelial cells, causing severe proteinuria peaking from day 6 to day 14 and gradually decreasing thereafter, and again showing tubular proteinuria (see J. R. Diamond, and M. J. Karnovsky: Focal and segmental glomerulosclerosis following a single intravenous dose of puromycin aminonucleoside, Am. J. Pathol; 1986; 122; 481-487) (hereinafter, this model will be referred to as puromycin-induced acute nephrosis model). Using the above puromycin-induced acute nephrosis model as a model of glomerular lesions, the combinational effect of interferon γ and the composition for preventing, ameliorating, or treating glomerular lesions or disease of kidney was examined. To a 5-week-old SD (Sprague-Dawley) male rat, 30 mg/kg/day of said composition (6-2) was subcutaneously administered every day from five days before the administration of puromycin, and at the same time, 0.25 ml (2.3×10^4U) of rat recombinant interferon γ (by PeproTeck, final concentration: 9.09 μg/ml) was intraperitoneally administered on alternate days from five days before the administration of puromycin, followed by a single intravenous dose of 50 mg/kg of puromycin. Even after the administration of puromycin, the same amount of the composition (6-2) and the rat recombinant interferon γ were continuously administered every day and on alternate days respectively. On days 6, 12, and 19 after the administration of puromycin, 24-hour urine collection was performed to measure the amount of rat urinary albumin excretion by ELIZA method. At the same time, the urinary creatinine concentration was also measured by enzyme method. As indexes of glomerular epithelial damage, albumin excretion and the ratio of urinary albumin excretion to urinary creatinine were compared.

[6] = tested on: glomerular lesions; renal tubulointerstitial lesions; conditions: International Publication WO 2004/024185 and 01/72730 pamphlets; cited from earlier work
[7] = human PBMC + LPS 80 μg/ml, 6-day culture, test compound 10 nM
[8] = human PBMC + LPS, summary of Table 2
[9] = THP-1 + interferon γ, summary of Table 4

## O=C1CCC(F)(C(=O)OCc2ccccc2)O1 (centres unmarked) [Compound (6-2)]
FRP-1/CD98/4F2hc; a different normal human PBMC, where expression was enhanced to 90% or more, not shown in Table
  expression of the FRP-1/CD98/4F2hc molecule lowered to: ≤ 5%
FRP-1/CD98/4F2hc; [7]
  Migration of FRP-1/CD98/4F2hc expression of macrophage fraction by FACScan (migration rate %), monoclonal antibody 4-5-1 (FRP-1): 32.7%
  Migration of FRP-1/CD98/4F2hc expression of macrophage fraction by FACScan (migration rate %), monoclonal antibody 6-1-3 (FRP-1): 29.8%
  Migration of FRP-1/CD98/4F2hc expression of macrophage fraction by FACScan (migration rate %), monoclonal antibody HBJ-127 (CD98): 11.0%
FRP-1/CD98/4F2hc; stimulated and cultured with LPS, summary of Table 1
  expression of FRP-1/CD98/4F2hc on macrophage fraction of human PBMC (in words): increased the expression
4F2hc [1]; human PBMC + LPS 80 μg/ml, 6-day culture, test compound 10 nM, solvent control 23
  Change in HAT expressed on large-monocyte fraction of human PBMC (peak value by FACScan), 4F2hc: 10
4F2hc [1]; [8]
  amount of 4F2hc in the heavy chain of HAT (in words): selectively decreased
rBAT [2]; human PBMC + LPS 80 μg/ml, 6-day culture, test compound 10 nM, solvent control 37
  Change in HAT expressed on large-monocyte fraction of human PBMC (peak value by FACScan), rBAT: 40
rBAT [2]; [8]
  amount of rBAT (in words): without any influence
4F2hc [3]; THP-1 + human recombinant interferon γ 100 ng/ml, test compound 100 nM, solvent control 16
  Change in HAT expressed on large-cell fraction of THP-1 (peak value by FACScan), 4F2hc: 10
4F2hc [3]; [9]
  amount of 4F2hc in the heavy chain of HAT (in words): selectively decreased
rBAT [4]; THP-1 + human recombinant interferon γ 100 ng/ml, test compound 100 nM, solvent control 55
  Change in HAT expressed on large-cell fraction of THP-1 (peak value by FACScan), rBAT: 50
rBAT [4]; [9]
  amount of rBAT (in words): without any influence
[5]; group average
  Albumin Excretion, Day 6: 98.3 mg/day
  Albumin Excretion, Day 12: 182.6 mg/day
  Albumin Excretion, Day 19: 101.0 mg/day
  Urinary Albumin Excretion/Urinary Creatinine, Day 6: 16.7 1/Cr
  Urinary Albumin Excretion/Urinary Creatinine, Day 12: 29.1 1/Cr
  Urinary Albumin Excretion/Urinary Creatinine, Day 19: 15.8 1/Cr
[5]; individual animal
  Urinary Albumin Excretion/Urinary Creatinine, Day 6: 12.1 1/Cr and 21.2 1/Cr
  Urinary Albumin Excretion/Urinary Creatinine, Day 12: 22.3 1/Cr and 35.8 1/Cr
  Urinary Albumin Excretion/Urinary Creatinine, Day 19: 11.0 1/Cr and 20.5 1/Cr
[5]; individual animal, 24-hour urine, day 6 after puromycin, compound 30 mg/kg/day s.c., 30 mg/kg/day
  Albumin Excretion, Day 6: 80.7 mg/day and 115.9 mg/day
[5]; individual animal, 24-hour urine, day 12 after puromycin, compound 30 mg/kg/day s.c., 30 mg/kg/day
  Albumin Excretion, Day 12: 136.0 mg/day and 229.1 mg/day
[5]; individual animal, 24-hour urine, day 19 after puromycin, compound 30 mg/kg/day s.c., 30 mg/kg/day
  Albumin Excretion, Day 19: 73.4 mg/day and 128.6 mg/day
[6]
  known action on glomerular lesions: selectively inhibit the glomerular lesions
